Reference: the NIST ThermoML archive (doi:10.1021/acs.jced.9b00535)
± gives the expanded uncertainty stated by the source. Blank lines part the entries; values can stand above or below the compound they belong to.

Conditions: Liquid, Ebulliometric method (Recirculating still)

SMILES: CC(=O)CC(C)C [4-methylpentan-2-one]
vapor or sublimation pressure (389.15 K): 101.3 ± 3 kPa

vapor or sublimation pressure (439.15 K): 101.3 ± 3 kPa
SMILES: CC(=O)N(C)C [N,N-dimethylethanamide]

vapor or sublimation pressure (390.75 K): 101.3 ± 3 kPa
SMILES: CCCCO [butan-1-ol]
